The record followed here is patent publication US7312358B2, “Pharmaceutically active sulfanilide derivatives” (Laboratoires Serono SA, priority 2000, dated 2007).

In general, Ki refers to a dissociation constant, usually derived from enzyme kinetics or from competition with a known ligand. Broadly, the IC50 is the concentration that gives 50% inhibition.

Test [1] addresses hV1a (Homo sapiens, UniProt P37288). The test can be described thus: In vitro competition binding assay on hV1a receptor with scintillating proximity assay. Set-up: expressed in transfected cells; host or cells: CHO cells (membranes). Conditions: membranes from CHO cells expressing hV1a receptor; radiolabel [125I]-LVA; SPA; read-out: Binding Affinity Human V1a Ki. The protocol:
b) In Vitro Competition Binding Assay on hV1a Receptor with Scintillating Proximity Assay
This assays allows to determine the affinity of the test compounds for the V1a receptor. Membranes from CHO cells expressing the hV1a receptor were resuspended in buffer containing 50 mM Tris-HCl, pH 7.4, 5 mM MgCl2 and 0.1% BSA (w/v). The membranes (5-10 μg) were mixed with 0.2 mg wheat-germ aglutinin (WGA) SPA bead (type A) and 0.03 nM of the radiolabel [^125I]-LVA (LVA being Linear Vasopressin Antagonist and is an analogue of AVP for competition binding experiments). Non-specific binding was determined in the presence of 1 μM AVP. The total assay volume was 100 μl. The plates (Corning 0 NBS plate) were incubated at room temperature for 2 hours and counted on a Mibrobeta plate counter. The tests compounds were used in concentrations of 30 μM, 10 μM, 1 μM, 300 nM, 100 nM, 10 nM, 1 nM, 100 pM, 10 pM. The competition binding data were analysed using the iterative, nonlinear, curve-fitting program, Graph pad “Prism”.
The binding affinities to the Via receptor of the sulfanilide derivatives claimed in the formula I were assessed using the above described in vitro biological assay. The values refer to the binding affinity (IC50; HM) of the example compounds according to formula I to the V1a receptor. From the values shown in Table 1 it can be derived that said test compounds according to formula I do show a significant binding to the Via receptor.

In test [2] the test system is oxytocin-induced uterine contractions in the rat. The test can be described thus: In vivo model for inhibition of uterine contractions. Conditions: anaesthetised DES-treated non-pregnant female rat, route not given. As for the experimental part: f) In Vivo Model for Inhibition of Uterine Contractions
The assay intends to show the biological effect of tested compounds in an in vivo model of preterm labor, premature birth.
Non-pregnant Charles River CD(SD) BR female rats (9-10 weeks old, 200-250 g) were treated at 18 and 24 hours before the experiment with 250 μg/kg, i.p. diethylstilbestrol (DES). For the assay, the animal was anaesthetised by urethane (1.75 g/kg, i.p.) and placed on an homeothennic operating table. The trachea was isolated and cannulated with a suitable polyethylene (PE) tubing. A midline incision at the hypogastrium level was made and one uterine horn exposed, its cephalic end cannulated with a PE240 tubing and, after filling the internal cavity with 0.2 ml of sterile physiological saline, connected to a “Gemini” amplifying/recording system via a P231D Gould Statham pressure transducer. For the i.v. route of administration of the test compounds, one jugular vein was isolated and cannulated with a PE60 tubing connected to a butterfly needle to allow the administration by a dispensing syringe. In the case of intraduodenal administration of the test compounds, the duodenum was isolated and similarly cannulated through a small incision in its wall. One carotid artery was also isolated and cannulated with PE60 catheter and connected to a suitable syringe for blood sample collection (see below). After a stabilization period, the same dose of oxytocin was repeatedly injected intravenously at 30-min intervals. […] Further injections of the same dose of oxytocin were then made for a suitable time after treatment to assess inhibitory effects of the compounds under study. The contractile response of the uterus to oxytocin was quantified by measuring the intra-uterine pressure and the number of contractions. The effect of the reference and test compounds were evaluated by comparing pre- and post-treatment pressure values. In addition, at 2, 30, 90 and 210 minutes after test compound administration, a 0.5-ml blood sample was withdrawn from the cannulated carotid artery of each experimental animal. Plasma was obtained by standard laboratory procedure and the resulting samples were stored at −20° C.
The activities of the sulfanilide derivatives claimed in the Formula I were assessed using the above described in vivo biological assay. The values refer to the capacity of the example compound according to Formula I to effectively antagonize oxytocin-induced uterine contractions in the rat.

Test [3] deals with T1, hOT-R (Homo sapiens, UniProt P30559).
T1 construct: expressed in transfected cells; host or cells: HEK (Human Embryonic Kidney) cells
T1 sequence (P30559 1-389): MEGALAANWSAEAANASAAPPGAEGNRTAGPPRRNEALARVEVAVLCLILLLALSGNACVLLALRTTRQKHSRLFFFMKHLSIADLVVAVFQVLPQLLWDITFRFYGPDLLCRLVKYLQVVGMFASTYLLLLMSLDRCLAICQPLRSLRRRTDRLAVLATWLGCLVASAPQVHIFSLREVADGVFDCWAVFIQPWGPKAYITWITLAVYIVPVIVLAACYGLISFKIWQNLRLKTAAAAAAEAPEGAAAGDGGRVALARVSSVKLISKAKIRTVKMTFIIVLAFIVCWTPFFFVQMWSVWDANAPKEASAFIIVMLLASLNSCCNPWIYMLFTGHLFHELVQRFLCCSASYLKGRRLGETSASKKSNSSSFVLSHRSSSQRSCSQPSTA
Nature of the test: Inhibition of oxytocin mediated Ca2+-mobilization by FLIPR (HEK cells). It counts as cell-based. To be noted: fluo-4, OT 40 nM. The source says: c) Functional Assay No. 1: Inhibition of Oxytocitn Mediated Ca^2+-Mobilization by FLIPR (Fluorescent Imaging Plate Reader)
FLIPR is a machine for fluorescence imaging using a laser that is capable of illuminating a 96-well plate and a means of simultaneously reading each well thus enabling rapid measurements on a large number of samples.
This assay intends to show the inhibition of the OT/OT-R mediated calcium mobilisation—being necessary to cause uterine contractions—by using test compounds of formula (I).
Preparing the plates: FLIPR-plates were pre-coated with PLL (Poly-L-Lysine) 10 μg/ml+0.1% gelatine to attach the HEK (Human Embryonic Kidney) cells for 30 min up to 2 days at 37° C. The cells were plated out into 96-well plates (60000 cells/well).
Labelling with fluo-4: […] fluo-4 (fluorescent marker) were dissolved in 20 μl pluronic acid (20% in DMSO). The dissolved fluo-4 was then diluted in 10 ml DMEM (Dubecco's Minimal Essential Medium-F12 medium without FCS (Fetal Calf Serum). The medium was removed from the plates, followed by one wash with DNEM-F12 medium. Now, 100 μl of the DMEM-F12 medium containing fluo-4 were added and the cells incubated for 1.5-2 h (HEK-cells). The cells now contain the fluorescent marker.
Buffer: 145 mM NaCl, 5 mM KCl, 1 mM MgCl2, 10 mM Hepes, 10 mM Glucose, EGTA (Ethylene-bis oxyethylene nitrilo tetraacetic acid). Adjust to pH 7.4.
Performance of the assay: A minimum of 80 μl/well of antagonists (5×) in the above buffer (1×) were prepared (96-well plates). The antagonists were added to the well-plates at different concentrations (30 μM, 10 μM, 1 μM, 300 nM, 100 nM, 10 nM, 1 nM, 100 pM, 10 pM).
OT is added at a concentration of 40 nM.
The fluorescent marker being sensitive to the amount of Ca^2+ mobilized within the cell may be quantified by the FLIPR machine.
The activities of the sulfanilide derivatives according to formula I were assessed using the above described in vitro biological assay. The values refer to the capacity of the example compounds according to formula I to effectively antagonize oxytocin-induced intracellular Ca^2+-mobilization mediated by the oxytocin receptor.

Test [4] concerns the target T2, hOT receptor (Homo sapiens, UniProt P30559).
T2 construct: expressed in transfected cells; host or cells: HEK293EBNA cells (membranes)
T2 sequence (P30559 1-389): T1 sequence (P30559 1-389)
Nature of the test: In vitro competition binding assay on hOT receptor with scintillating proximity assay. To be noted: membranes from HEK293EBNA cells expressing hOT receptor; radiolabel [125I]-OVTA; SPA; read-out: Binding Affinity Human OT-R Ki. The protocol:
a) In Vitro Competition Binding Assay on hOT Receptor with Scintillating Proximity Assay (Pharmaceutical Manufacturing International, 1992, p. 49-53 by Cook, N. D. et al)
This assays allows to determine the affinity of the test compounds for the OT receptor. Membranes from HEK293EBNA cells expressing the hOT receptor were resuspended in buffer containing 50 mM Tris-HCl, pH 7.4, 5 mM MgCl2 and 0.1% BSA (w/v). The membranes (2-4 μg) were mixed with 0.1 mg wheat-germ aglutinin (WGA) SPA bead (type A) and 0.2 nM of the radiolabel [^125I]-OVTA (OVTA being […] and is an analogue of OT for competition binding experiments). Non-specific binding was determined in the presence of 1 μM Oxytocin. The total assay volume was 100 μl. The plates (Corning (D NBS plate) were incubated at room temperature for 30 min and counted on a Mibrobeta plate counter. The tests compounds were used in concentrations of 30 μM, 10 μM, 1 μM, 300 nM, 100 nM, 10 nM, 1 nM, 100 pM, 10 pM. The competition binding data were analysed using the iterative, nonlinear, curve-fitting program, “Prism”.
The binding affinities to the oxytocin receptor of the sulfanilide derivatives claimed in the formula I were assessed using the above described in vitro biological assay. The values refer to the binding affinity (IC50; μM) of the example compounds according to formula I to the Oxytocin receptor. From the values shown in Table 1 it can be derived that said test compounds according to formula I do show a significant binding to the oxytocin receptor.

SMILES strings stand for the structures.

hV1a, sequence (P37288 whole entry): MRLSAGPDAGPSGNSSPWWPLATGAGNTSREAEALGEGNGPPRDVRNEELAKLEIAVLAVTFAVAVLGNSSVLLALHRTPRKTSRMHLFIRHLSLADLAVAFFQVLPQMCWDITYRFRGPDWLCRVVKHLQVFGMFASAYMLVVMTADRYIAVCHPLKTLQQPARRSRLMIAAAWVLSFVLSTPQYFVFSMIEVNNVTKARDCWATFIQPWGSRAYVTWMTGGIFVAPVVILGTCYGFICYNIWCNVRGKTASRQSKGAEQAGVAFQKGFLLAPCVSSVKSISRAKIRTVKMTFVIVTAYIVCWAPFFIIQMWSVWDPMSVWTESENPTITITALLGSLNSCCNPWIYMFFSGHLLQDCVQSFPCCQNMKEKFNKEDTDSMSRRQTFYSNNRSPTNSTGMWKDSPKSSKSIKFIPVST

For `COc1ccc(N(CC(=O)Nc2ccc(C)cc2C)S(=O)(=O)c2ccc(OC)c(OC)c2)cc1` [2-[(3,4-Dimethoxy-benzenesulfonyl)-(4-methoxy-phenyl)amino]-N-(2,4-dimethyl-phenyl)-acetamide], in test [1], the Ki is 135 nM.

For the compound `COc1ccc(N(CC(=O)NCCSc2ccccn2)S(=O)(=O)c2ccc(C)cc2)cc1` [2-[(4-Methoxy-phenyl)-(toluene-4-sulfonyl)-amino]-N-[2-(pyridin-2-ylsulfanyl)-ethyl]-acetamide], in test [1], the Ki is 430 nM.

Turning to `COc1ccc(N(CC(=O)Nc2ccc(C)cc2C)S(=O)(=O)c2ccccc2)cc1` [2-[Benzenesulfonyl-(4-methoxy-phenyl)-amino]-N-(2,4-dimethyl-phenyl)-acetamide], the Ki in test [1] was 45 nM.

With `O=C(CN(c1ccc(Cl)cc1)S(=O)(=O)c1ccc(OCCN2CCOCC2)cc1)NN=C1C(=O)Nc2ccccc21` [Example 55, N-(4-chlorophenyl)-4-[2-(4-morpholinyl)ethoxy]-N-{2-oxo-2-[2-(2-oxo-1,2-dihydro-3H-indol-3-ylidene)hydrazino]ethyl}benzenesulfonamide], the “% Reduction of Uterine Contraction” value turned out to be 4.3 ± 1.7% in test [2] (dose 0.3 mg/kg); 18.2 ± 3.7% in test [2] (dose 1 mg/kg); 39.8 ± 5.1% in test [2] (dose 3 mg/kg); 41.7 ± 12.5% in test [2] (dose 10 mg/kg); 71.3 ± 6.4% in test [2] (dose 30 mg/kg). Besides, the IC50 in test [3] came out at 7 nM. The Ki in test [4] amounted to 0.8 nM.

For the compound `CN(C)CCCOc1ccc(S(=O)(=O)N(CC(=O)N/N=C2\C(=O)Nc3ccccc32)c2ccc(Cl)cc2)cc1` [Example 67, N-(4-chlorophenyl)-4-[3-(dimethylamino)propoxy]-N-{2-oxo-2-[(2Z)-2-(2-oxo-1,2-dihydro-3H-indol-3-ylidene)hydrazino]ethyl}benzenesulfonamide], the “% Reduction of Uterine Contraction” value in test [2] (dose 0.3 mg/kg) came to 9.3 ± 2.5%; in test [2] (dose 1 mg/kg), 20.8 ± 2.2%; in test [2] (dose 3 mg/kg), 34.4 ± 3.9%; in test [2] (dose 10 mg/kg) it was 57.1 ± 4.8%; in test [2] (dose 30 mg/kg) it was 67.4 ± 7.1%. In test [3], this compound yielded an IC50 of 13.6 nM. The Ki in test [4] was 0.6 nM.

On to `CN(C)CCCNC(=O)CCc1ccc(S(=O)(=O)N(CC(=O)N/N=C2\C(=O)Nc3ccccc32)c2ccc(Cl)cc2)cc1` [Example 71, 3-{4-[(4-chloro{2-oxo-2-[(2Z)-2-(2-oxo-1,2-dihydro-3H-indol-3-ylidene)hydrazino]ethyl}anilino)sulfonyl]phenyll}-N-[3-(dimethylamino)propyl]propanamide], for which, in test [3], the IC50 is 14 nM. Further, the Ki in test [4] amounted to 0.7 nM.

As to `Cc1ccc(N(CC(=O)NCC(O)c2ccccc2)S(=O)(=O)c2ccc(C)cc2)cc1` (centres unmarked) [N-(2-Hydroxy-2-phenyl-ethyl)-2-[(toluene-4-sulfonyl)-p-tolyl-amino]-acetamide], the inhibitory constant (Ki) in test [1] amounted to 370 nM.

Take `O=C(CN(c1cccc(Br)c1)S(=O)(=O)c1ccccc1)N/N=C/c1ccccc1O` [N-(3-Bromo-phenyl)-N-(2-hydroxy-benzylidene-hydrazinocarbonylmethyl)-benzenesulfonamide]: the Ki in test [1] was 503 nM.

On to `O=C(CN(c1ccc(Br)cc1)S(=O)(=O)c1ccccc1)N1CCc2ccccc2C1` [N-(4-Bromo-phenyl)-N-[2-(3,4-dihydro-1H-isoquinolin-2-yl)-2-oxo-ethyl]-benzenesulfonamide], for which the Ki in test [1] is 58 nM.

Turning to `O=C(CN(c1ccc(Cl)cc1)S(=O)(=O)c1ccccc1)N/N=C/c1ccccc1O` [N-(4-Chloro-phenyl)-N-(2-hydroxy-benzylidene-hydrazinocarbonylmethyl)-benzenesulfonamide], the Ki in test [1] is 750 nM.
